Reference: patent US20130023001A1, “USE OF A SUBSTRATE IN A METHOD FOR MEASURING THE ACTIVITY OF PROTEOLYTIC ENZYMES” (priority 2011, published 2013)

Key:
Type in all cases: biochemical
[1] = test system: low-molecular-weight heparin, Fragmine®; assay: evaluation method for heparin neutralization by anti-Xa activity (chromogenic para-nitroaniline substrate) with low-molecular-weight heparin
Excerpt: (§1) Before referring to the diagrams of the figures, the evaluation method used to quantify the neutralization of the glycosaminoglycans in a blood sample, and in particular a plasma, will be described. This method makes it possible to use both unfractionated heparins and low-molecular-weight heparins. In addition, the method endeavors to test the activity of factor Xa, located at the crossroads of two enzymatic cascades resulting in the formation of thrombin. Moreover, antithrombin, which is a natural inhibitor of thrombin generation, controls the reaction. As soon as it appears, factor Xa couples to its natural substrate, prothrombin, so as to form thrombin. The heparin contained in the sample forms, itself, a complex with antithrombin, which complex promotes the inhibition of factor Xa.
(§2) Thus, a chromogenic substrate based on para-nitroaniline, which factor Xa hydrolyzes, is used and the release of the para-nitroaniline, which can be measured optically, is then inversely proportional to the concentration of heparin present in the medium. A measurement of the anti-Xa activity is thus deduced therefrom.
(§3) The percentage neutralization by the synthetic polymer is determined as being the ratio of the difference in the variation in anti-Xa activity in the medium containing the physiological saline and in the medium containing the neutralizing agent, between two heparin concentrations, and only the variation in activity in the medium containing the physiological saline, between the same two heparin concentrations, this ratio being multiplied by 100 in order to obtain the result as percentage neutralization.
(§4) The percentage neutralization can also be written more compactly: 100×(1−ΔA1/ΔA2), wherein ΔA1 corresponds to the variation in activity in the presence of neutralizing compound and ΔA2 to the variation in the presence of physiological saline. Thus, the parallel measurement of the variation in the presence of physiological saline makes it possible to establish the reference in each series of measurements.
Still in this first part of the description, the abovementioned evaluation method was implemented with a low-molecular-weight heparin, Fragmine®.

[2] = test system: unfractionated heparin, Calciparine®; assay: evaluation method for heparin neutralization by anti-Xa activity (chromogenic para-nitroaniline substrate) with unfractionated heparin; settings: for percentage neutralization of Calciparine®, 100×(1−ΔA1/ΔA2): heparin concentrations between 0 and 1.67 IU/ml
Excerpt: as §1, §2
In this first example, the heparin used is an unfractionated calcium heparin sold under the brand name: “Calciparine®”. According to the evaluation method, the anti-Xa activity is recorded and transferred onto the y-axis, as a function of the heparin concentration of the medium. The heparin concentrations vary between 0 and 1.67 IU/ml and are relatively close to the therapeutic concentrations. The first inclined curve 10 corresponds to a first series of measurements wherein physiological saline is added to the blood sample in addition to the para-nitroaniline-based substrate, while the second inclined curve 12 corresponds to a second series of measurements wherein a neutralizing synthetic polymer, polybrene, intended to neutralize the anticoagulant effects of the heparin, is added to the blood sample. This compound is well known for its effects on heparin and is usually employed in methods for measuring the activity of proteolytic enzymes in order to actually dispense with the anticoagulant effect of heparin.
as §3, §4

thrombin = molecular target: T1, thrombin (Homo sapiens, UniProt P00734); assay: measuring method: thrombin generation fluorescent signal in a blood sample containing heparin
T1 construct: from tissue; host or cells: blood sample (plasma) containing heparin; thrombin generation triggered with tissue factor and calcium
Experimental: According to one embodiment of the measuring method, the enzymatic activity monitored is that of thrombin generation. The principle lies in the monitoring of the measurement of a fluorescent signal after the enzyme substrate has been brought into contact with a blood sample containing heparin, and the reaction conditions allow the thrombin to cleave the substrate between the peptide part and the fluorophore, in this case rhodamine110.
In order to implement the method, a blood sample of 40 μL containing heparin is first of all introduced into a microcuvette. 10 μL of the enzyme substrate in accordance with the invention mixed with an initiating reagent, and 10 μL of activating reagent are added thereto. The initiating reagent is […] and it has a concentration of 16.7×10^−3 mol.L^−1. The activating reagent is tissue factor at a concentration of 10^−12 mol.L^−1.
Next, an excitation signal having a predetermined wavelength is emitted through the microcuvette and the response to the excitation signal is recorded optically over time. Thus, the greater the amount of thrombin generated, the greater the signal response.
According to one particular embodiment, the enzyme substrate chosen is that corresponding to the embodiment variant V(3) of the first part of the detailed description, and of synthetic formula (R^2−GGR)2-Rhod110. […]

Row | effect of heparin on the thrombin activity measurement (signal curve with versus without heparin) (thrombin; unfractionated heparin 1.5 IU/ml, FIG. 5) | strength of the thrombin activity signal relative to the series of measurements without heparin (thrombin; heparin 1.5 IU/ml, after 30 minutes, FIG. 7) [%] | Substance | percentage neutralization of Fragmine® ([1]; heparin 0.42 IU/ml) [%] | percentage neutralization of Fragmine® ([1]; heparin 0.83 IU/ml) [%] | percentage neutralization of Fragmine® ([1]; heparin 1.25 IU/ml) [%] | percentage neutralization of Fragmine® ([1]; heparin 1.67 IU/ml) [%] | percentage neutralization of Calciparine® ([2]; heparin 0.42 IU/ml) [%] | percentage neutralization of Calciparine® ([2]; heparin 0.83 IU/ml) [%] | percentage neutralization of Calciparine® ([2]; heparin 1.25 IU/ml) [%] | percentage neutralization of Calciparine® ([2]; heparin 1.67 IU/ml) [%] | percentage neutralization of Calciparine®, 100×(1−ΔA1/ΔA2) [2] [%]
1 | very small effect | – | (R^2GGR)2-Rhod110 [V(3)] | 88 | 90 | 91 | 91 | 90 | 93 | 94 | 96 | –
2 | – | – | (EtM-VR)2-Rhod110 [V(2)] | 71 | 78 | 79 | 78 | – | – | – | – | ~100
3 | – | – | R^2GGR-Rhod110-H [V(4)] | 83 | 83 | 72 | 64 | 96 | 90 | 89 | 80 | –
4 | – | ~3 | EtM-VR-Rhod110-Ac [reference compound] | – | – | – | – | – | – | – | – | –
5 | – | – | R^2GGR-Rhod110-R [V(1)] | 64 | 65 | 64 | 72 | – | – | – | – | ~100
6 | – | – | R^2GGR-Rhod110-Benzoic [V(5)] | 77 | 75 | 75 | 74 | 100 | 97 | 98 | 98 | –
